Experimental data from US11932626B2, “2-pyrimidone analogs as potent antiviral agents against Alphaviruses” (priority 2020, dated 2024).

Experiments:
[1] = test system: CHIKV; test: CHIKV virus titer reduction (VTR) assay in NHDF cells; assay type: cell-based; conditions: Chikungunya virus; for log reduction at 10 µM: CHIKV titer reduction at 10 μM, normal human dermal fibroblasts (NHDF) cells; for EC90: effective concentration of 90% inhibition of virus in a VTR assay, NHDF cells
[2] = test system: CHIKV linked NanoLuc luciferase reporter; test: microbe, parasite or virus in culture; assay type: cell-based; conditions: Chikungunya virus, read-out: CHIKV EC50
[3] = test system: VEEV; test: microbe, parasite or virus in culture; assay type: cell-based; conditions: Venezuelan equine encephalitis virus, NHDF; for EC90: read-out: VEEV EC90; for log reduction at 10 µM: read-out: VEEV VTR
[4] = test system: VEEV (TC-83); test: microbe, parasite or virus in culture; assay type: cell-based; conditions: Venezuelan equine encephalitis virus, read-out: VEEV EC50
[5] = in vitro; conditions: human

Structure (SMILES): O=C(COc1cc(C2CCC2)[nH]c(=O)n1)NC12CC3CC(CC(C3)C1)C2 [compound 12, N-(Adamantan-1-Yl)-2-((6-Cyclobutyl-2-Oxo-1,2-Dihydropyrimidin-4-Yl)Oxy)Acetamide]
- log reduction at 10 µM [1]: 3.31
- EC90 [1]: 0.1 µM
- EC50 [2]: 0.11 µM
- EC90 [3]: 0.1 µM
- log reduction at 10 µM [3]: 3.1
- EC50 [4]: 1.88 µM
- CC50 [5]: > 40 µM

Structure (SMILES): O=C(COc1nc(=O)[nH]c(OCCO)c1F)NC12CC3CC(CC(C3)C1)C2 [compound 50, N-(adamantan-1-yl)-2-((5-fluoro-6-(2-hydroxyethoxy)-2-oxo-1,2-dihydropyrimidin-4-yl)oxy)acetamide]
- log reduction at 10 µM [1]: 0
- EC90 [1]: > 10 µM
- EC50 [2]: 25.4 µM
- EC90 [3]: > 10 µM
- log reduction at 10 µM [3]: 0.5
- EC50 [4]: > 40 µM
- CC50 [5]: > 40 µM

Structure (SMILES): Cc1c[nH]c(=O)nc1OCC(=O)NC12CC3CC(CC(C3)C1)C2 [compound 25, N-(Adamantan-1-Yl)-2-((5-Methyl-2-Oxo-1,2-Dihydropyrimidin-4-Yl)Oxy)Acetamide]
- log reduction at 10 µM [1]: 4.91
- EC90 [1]: 2.1 µM
- EC50 [2]: 1.97 µM
- EC90 [3]: 2.83 µM
- log reduction at 10 µM [3]: 3.04
- EC50 [4]: 16.1 µM
- CC50 [5]: > 40 µM

Structure (SMILES): CC(C)(C#N)COc1cc(OCC(=O)NC23CC4CC(CC(C4)C2)C3)nc(=O)[nH]1 [compound 52, N-(Adamantan-1-Yl)-2-((6-(2-Cyano-2-Methylpropoxy)-2-Oxo-1,2-Dihydropyrimidin-4-Yl)Oxy)Acetamide]
- log reduction at 10 µM [1]: 2.42
- EC90 [1]: 2.5 µM
- EC50 [2]: 13.7 µM
- EC90 [3]: 2.5 µM
- log reduction at 10 µM [3]: 2.5
- EC50 [4]: > 40 µM
- CC50 [5]: > 40 µM

Structure (SMILES): O=C(COc1nc(=O)[nH]cc1F)NC1C2CC3CC(C2)CC1C3 (stereo not shown) [compound 27, N-(Adamantan-2-Yl)-2-((5-Fluoro-2-Oxo-1,2-Dihydropyrimidin-4-Yl)Oxy)Acetamide]
- log reduction at 10 µM [1]: 1.31
- EC90 [1]: 8.75 µM
- EC50 [2]: 32.5 µM
- EC90 [3]: 10 µM
- log reduction at 10 µM [3]: 0
- EC50 [4]: > 40 µM
- CC50 [5]: > 40 µM

Structure (SMILES): O=C(COc1cc(OC2CC2)[nH]c(=O)n1)NC12CC3CC(CC(C3)C1)C2 [compound 48, N-(Adamantan-1-Yl)-2-((6-Cyclopropoxy-2-Oxo-1,2-Dihydropyrimidin-4-Yl)Oxy)Acetamide]
- log reduction at 10 µM [1]: 5.51
- EC90 [1]: 0.06 µM
- EC50 [2]: 0.283 µM
- EC90 [3]: 0.65 µM
- log reduction at 10 µM [3]: 3.28
- EC50 [4]: 3.77 µM
- CC50 [5]: > 40 µM

Structure (SMILES): CC(C)(C)COc1cc(OCC(=O)NC23CC4CC(CC(C4)C2)C3)nc(=O)[nH]1 [compound 51, N-(Adamantan-1-Yl)-2-((6-(Neopentyloxy)-2-Oxo-1,2-Dihydropyrimidin-4-Yl)Oxy)Acetamide]
- log reduction at 10 µM [1]: 3.77
- EC90 [1]: 0.75 µM
- EC50 [2]: 7.43 µM
- EC90 [3]: 0.1 µM
- log reduction at 10 µM [3]: 3.85
- EC50 [4]: > 40 µM
- CC50 [5]: > 40 µM

Structure (SMILES): O=C(COc1cc(Cl)[nH]c(=O)n1)NC12CC3CC(CC(C3)C1)C2 [compound 18, N-(Adamantan-1-Yl)-2-((6-Chloro-2-Oxo-1,2-Dihydropyrimidin-4-Yl)Oxy)Acetamide]
- log reduction at 10 µM [1]: 5.19
- EC90 [1]: 0.51 µM
- EC50 [2]: 0.81 µM
- EC90 [3]: 5.65 µM
- log reduction at 10 µM [3]: 1
- EC50 [4]: 16.1 µM
- CC50 [5]: > 40 µM

Structure (SMILES): CC(C)Cc1cc(OCC(=O)NC23CC4CC(CC(C4)C2)C3)nc(=O)[nH]1 [compound 10, N-(Adamantan-1-Yl)-2-((6-Isobutyl-2-Oxo-1,2-Dihydropyrimidin-4-Yl)Oxy)Acetamide]
- log reduction at 10 µM [1]: 8.16
- EC90 [1]: 0.31 µM
- EC50 [2]: 1.15 µM
- EC90 [3]: 1.2 µM
- log reduction at 10 µM [3]: 2.74
- EC50 [4]: 19.7 µM
- CC50 [5]: > 40 µM

Structure (SMILES): Cc1cc(OCC(=O)NC23CC4CC(CC(C4)C2)C3)nc(=O)[nH]1 [compound 9, N-(Adamantan-1-Yl)-2-((6-Methyl-2-Oxo-1,2-Dihydropyrimidin-4-Yl)Oxy)Acetamide]
- log reduction at 10 µM [1]: 1.81
- EC90 [1]: 3.5 µM
- EC50 [2]: 1.2 µM
- EC90 [3]: 1.1 µM
- log reduction at 10 µM [3]: 1.37
- EC50 [4]: 20 µM
- CC50 [5]: > 40 µM
